“And” between values parts separate entries of the source, which are not always exact repeats. Equal values may be shown once.
Tests used:
[1] = Inhibitor exposure estimates and PK inputs for static drug interaction risk assessment; conditions: for Cmax,u: maximal free plasma concentration (Cmax × fu) at ritlecitinib 200 mg
OATP1B1 [2] = molecular target: T1, OATP1B1 (Homo sapiens, UniProt Q9Y6L6); assay: OATP1B1-mediated rosuvastatin uptake inhibition in transfected HEK293 cells; format: cell-based; conditions: for IC50: hepatic OATP1B1, RSV 0.3–0.5 µM as substrate, 1—3 min, HEK293, mean ± SD, n = 3; for R-value: 1 + (Imax,inlet,u/IC50), cutoff 1.1 (FDA), 1.04 (EMA)
T1 construct: expressed in transfected cells; host or cells: HEK293
T1 sequence (Q9Y6L6 1-691): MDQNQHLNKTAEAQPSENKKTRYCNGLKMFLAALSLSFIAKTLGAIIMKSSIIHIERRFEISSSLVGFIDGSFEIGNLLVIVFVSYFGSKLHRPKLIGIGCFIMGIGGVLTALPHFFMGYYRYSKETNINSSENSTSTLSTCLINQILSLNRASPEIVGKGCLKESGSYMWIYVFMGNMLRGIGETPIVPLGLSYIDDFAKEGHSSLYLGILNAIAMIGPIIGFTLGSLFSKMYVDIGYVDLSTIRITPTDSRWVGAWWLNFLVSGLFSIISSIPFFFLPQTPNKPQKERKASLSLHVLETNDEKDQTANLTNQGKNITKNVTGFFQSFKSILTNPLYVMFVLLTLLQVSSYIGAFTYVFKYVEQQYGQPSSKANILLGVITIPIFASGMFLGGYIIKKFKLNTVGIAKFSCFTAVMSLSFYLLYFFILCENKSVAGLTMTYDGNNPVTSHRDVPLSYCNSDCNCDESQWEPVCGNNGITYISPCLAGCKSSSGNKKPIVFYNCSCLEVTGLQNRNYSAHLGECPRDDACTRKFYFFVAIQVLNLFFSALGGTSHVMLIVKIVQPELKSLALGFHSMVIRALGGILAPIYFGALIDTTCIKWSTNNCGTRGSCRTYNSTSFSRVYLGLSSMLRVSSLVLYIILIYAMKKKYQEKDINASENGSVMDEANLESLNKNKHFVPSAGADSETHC
Procedure: (§1) Sources of human embryonic kidney (HEK) 293 cells expressing individual transfected human solute carriers (SLC), test substrates, and cell culture reagents, as well as detailed cell culture methods, incubations, and sample processing, have been described previously. SLC included hepatic OATP1B1, OATP1B3, and renal OAT1 and OAT3. […] Likewise, the uptake of non-labeled rosuvastatin (Biosynth, San Diego, CA) at 0.3—0.5 µM was determined for OATP1B1 and OATP1B3 at 1—3 min, and CP-I (Frontier Specialty Chemicals, Logan, UT) at 0.1 µM was determined for OATP1B1 and OATP1B3 at 10 min [14].
(§2) In all cases, ritlecitinib (0.018 to 1000 µM) and metabolite M2 (0.018 to 300 µM) was tested over a wide range of final concentrations dissolved in dimethyl sulfoxide (the final concentration of dimethyl sulfoxide in the assays was 1% v/v). For each transporter, the IC50 was estimated using a four-parameter logistic equation (Eq. 1) using GraphPad Prism software (GraphPad Software Inc, La Jolla, CA).1 %UptakeActivity=Bottom+(Top-Bottom)/1+10^(LogIC50-inhib*HillSlope)
At the end of the uptake and inhibition experiment, cellular accumulation of ^3H-PAH and ^3H-E3S was determined using liquid scintillation counting as previously described. Rosuvastatin uptake was determined using a tandem high performance liquid chromatography (LC)-mass spectrometry (MS) assay.

OATP1B1 [3] = molecular target: T1, OATP1B1; assay: OATP1B1-mediated CP-I uptake inhibition in transfected HEK293 cells; format: cell-based
Procedure: as §1, §2
Uptake of CP-I was determined by analysis of the in vitro assay samples using an optimized LC-high resolution mass spectrometry (HRMS) method. In brief, dried samples were reconstituted in 150 µL of 0.1% formic acid and analyzed by LC-HRMS. Analyte separation and detection was achieved using a Shimadzu Nexera high performance LC system (Shimazdu Scientific, MA, USA) coupled to a Sciex API-6600 Q-TOF (time of flight) mass spectrometer with a Turbo IonDrive source (Sciex Corporation, MA, USA). Chromatographic separation was achieved using a Waters Acquity BEH C18 1.7µ 2.1 mm x 100 mm column and a binary mobile phase system consisting of 0.1% v/v formic acid and 0.1% v/v formic acid in acetonitrile, as mobile phase A and B, respectively. The column temperature was held at 60 °C and the flow rate was 0.55 mL/minute. The gradient program had initial conditions of 5% B which was held for 0.9 min, followed by a linear ramp to 95% B over 5.1 min, a hold for 1.0 min, and a return to starting conditions over 0.1 min with re-equilibration for 0.9 min (total run time of 8.0 min). Analyte detection was achieved using an API-6600 Q T-OF mass spectrometer with electrospray ionization (ESI). The mass spectrometer was operated in both TOF-MS and TOF-MS/MS mode with data collected over a 60 to 670 dalton mass range. TOF-MS/MS data were collected in the high-resolution mode. Quantification of CP-I levels was assessed using targeted TOF-MS/MS data with accumulation times of 150 and 35 ms, respectively, for CP-I and the internal standard (ISTD) verapamil. […]

CYP3A = conditions: cited from earlier work
[4] = set-up: method as in data not published; conditions: ref data not published, cited from earlier work

Row | Cmax,u [1] | Triggers Drug Interaction Cutoff (OATP1B1 [2]; OATP1B1 (RSV)) | Cmax,u/IC50 ratio (OATP1B1 [2]; OATP1B1 (RSV), Cmax,u used for metabolite M2) | Fraction Inhibited (OATP1B1 [2]; OATP1B1 (RSV), Cmax,u/(Cmax,u + IC50) for M2 (Eq. 3)) | IC50 (OATP1B1 [2]) [µM] | Triggers Drug Interaction Cutoff (OATP1B1 [3]; OATP1B1 (CP-I)) | R-value (OATP1B1 [3]; OATP1B1 (CP-I), 1 + (Imax,inlet,u/IC50), cutoff 1.1 (FDA), 1.04 (EMA)) | Fraction Inhibited (OATP1B1 [3]; OATP1B1 (CP-I), Imax,inlet,u/(Imax,inlet,u + IC50) (Eq. 1)) | IC50 (OATP1B1 [3]; hepatic OATP1B1, CP-I 0.1 µM as substrate, 10 min, HEK293, mean ± SD, n = 3) [µM] | Imax,inlet,u ([1]; estimated maximal free hepatic portal concentration, ritlecitinib 200 mg) [µM] | [I]2 ([1]; oral molar dose of ritlecitinib (200 mg)/250 mL) [µM] | R-value (OATP1B1 [2]; OATP1B1 (RSV)) | R-value (OATP1B1 [2]; OATP1B1 (RSV), listed as ritlecitinib) | Fraction Inhibited (OATP1B1 [2]; OATP1B1 (RSV), Imax,inlet,u/(Imax,inlet,u + IC50) (Eq. 1)) | Fraction Inhibited (OATP1B1 [2]; OATP1B1 (RSV), Imax,inlet,u/(Imax,inlet,u + IC50) (Eq. 1), listed as ritlecitinib) | SMILES | inhibition of CYP3A (CYP3A; classification in words) | contribution of CYP3A pathway to metabolism of ritlecitinib (CYP3A; ref data not published) [%] | steady-state accumulation ratio of AUC ([4]; 200 mg QD regimen, FIH study) | half-life (arithmetic mean) ([4]; 200 mg single dose, first-in-human study) [h] | steady-state of PK reached at ([4]; QD regimens, FIH study) [days]
1 | 1.4 μM and 1.4^j μM | Yes | 0.70 | 0.4 | 2 ± 0.03 |  |  |  |  |  |  |  |  |  |  | C[C@H]1CC[C@@H](Nc2ncnc3[nH]ccc23)CN1C(=O)CCSC[C@H](N)C(=O)O [M2] |  |  |  |  | 
2 | 4.7 µM | Yes |  |  | 312 ± 19 | Yes | 1.12 | 0.1 | 257 ± 8 | 31.7 | 2803 | 1.10 | 1.1 | 0.09 | ≤ 0.1 | C=CC(=O)N1C[C@H](Nc2ncnc3[nH]ccc23)CC[C@@H]1C [Ritlecitinib, ritlecitinib] | moderate inhibitor | < 25 | 1.8 | 1.75 | 4

Reference: PMC10733197, “Utilization of Rosuvastatin and Endogenous Biomarkers in Evaluating the Impact of Ritlecitinib on BCRP, OATP1B1, and OAT3 Transporter Activity” (Pharmaceutical Research, 2023)
